The source of these data is article PMC7614683, “A small molecule PI3Kα activator for cardioprotection and neuroregeneration” (Nature, 2023).

Assay in all cases: SelectScreen Z-LYTE kinase activity assay (SI Table 6)
Common to all, as to format: biochemical

In experiment [1] the target is protein kinases of the Z-LYTE panel (Homo sapiens, UniProt P49840). In outline: (§1)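 Percent effect values derive from SelectScreen Adapta, Lantha and Z-LYTE assays in which 1938 was present at 1 μM, spanning 133 protein kinases and 7 lipid kinases.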
Experiment [2] addresses protein kinases of the Z-LYTE panel (Homo sapiens, UniProt P15056). Particulars: BRAF, 1000 nM, [ATP] 100 μM. In outline:
as §1

For experiment [3], the target named is protein kinases of the Z-LYTE panel (Homo sapiens, UniProt P22455). In outline:
as §1

In experiment [4] the target is T1, protein kinases of the Z-LYTE panel (Homo sapiens, UniProt Q13976).
T1 sequence (Q13976 1-671): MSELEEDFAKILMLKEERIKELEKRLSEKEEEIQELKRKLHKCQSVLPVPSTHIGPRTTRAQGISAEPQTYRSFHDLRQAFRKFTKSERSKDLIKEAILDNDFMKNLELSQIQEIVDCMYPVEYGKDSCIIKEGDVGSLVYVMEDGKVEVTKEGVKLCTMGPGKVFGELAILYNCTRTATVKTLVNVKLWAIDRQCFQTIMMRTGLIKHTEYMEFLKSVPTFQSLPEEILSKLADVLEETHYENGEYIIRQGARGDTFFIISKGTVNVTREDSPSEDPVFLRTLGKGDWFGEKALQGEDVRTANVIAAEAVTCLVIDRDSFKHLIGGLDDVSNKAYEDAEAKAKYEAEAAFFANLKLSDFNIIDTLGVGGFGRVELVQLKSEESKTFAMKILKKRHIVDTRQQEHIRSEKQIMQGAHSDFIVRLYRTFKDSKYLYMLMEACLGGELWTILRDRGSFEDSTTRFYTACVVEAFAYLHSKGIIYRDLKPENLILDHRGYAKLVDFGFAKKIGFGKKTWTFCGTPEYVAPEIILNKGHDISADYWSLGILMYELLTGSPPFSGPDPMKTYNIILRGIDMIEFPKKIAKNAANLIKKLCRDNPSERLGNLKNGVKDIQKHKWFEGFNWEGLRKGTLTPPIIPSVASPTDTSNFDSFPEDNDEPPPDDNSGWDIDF
In outline: as §1

Experiment [5] deals with T2, protein kinases of the Z-LYTE panel (Homo sapiens, UniProt O00141).
T2 sequence (O00141 1-431): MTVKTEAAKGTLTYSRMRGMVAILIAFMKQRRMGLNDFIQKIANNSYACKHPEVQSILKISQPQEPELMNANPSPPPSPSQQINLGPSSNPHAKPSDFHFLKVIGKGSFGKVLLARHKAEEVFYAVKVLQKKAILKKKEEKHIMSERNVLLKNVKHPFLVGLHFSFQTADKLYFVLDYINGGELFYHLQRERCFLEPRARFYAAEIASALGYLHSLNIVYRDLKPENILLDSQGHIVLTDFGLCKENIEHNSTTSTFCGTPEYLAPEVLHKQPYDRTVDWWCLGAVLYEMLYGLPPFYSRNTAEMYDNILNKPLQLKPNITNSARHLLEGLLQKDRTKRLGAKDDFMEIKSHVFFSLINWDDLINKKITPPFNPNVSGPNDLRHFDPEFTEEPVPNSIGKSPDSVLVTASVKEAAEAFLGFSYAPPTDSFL
In outline: as §1

Read-outs that look alike come from different tables or passages of the source.

Chain of protein kinases of the Z-LYTE panel (Homo sapiens, UniProt P15056) (P15056 whole entry): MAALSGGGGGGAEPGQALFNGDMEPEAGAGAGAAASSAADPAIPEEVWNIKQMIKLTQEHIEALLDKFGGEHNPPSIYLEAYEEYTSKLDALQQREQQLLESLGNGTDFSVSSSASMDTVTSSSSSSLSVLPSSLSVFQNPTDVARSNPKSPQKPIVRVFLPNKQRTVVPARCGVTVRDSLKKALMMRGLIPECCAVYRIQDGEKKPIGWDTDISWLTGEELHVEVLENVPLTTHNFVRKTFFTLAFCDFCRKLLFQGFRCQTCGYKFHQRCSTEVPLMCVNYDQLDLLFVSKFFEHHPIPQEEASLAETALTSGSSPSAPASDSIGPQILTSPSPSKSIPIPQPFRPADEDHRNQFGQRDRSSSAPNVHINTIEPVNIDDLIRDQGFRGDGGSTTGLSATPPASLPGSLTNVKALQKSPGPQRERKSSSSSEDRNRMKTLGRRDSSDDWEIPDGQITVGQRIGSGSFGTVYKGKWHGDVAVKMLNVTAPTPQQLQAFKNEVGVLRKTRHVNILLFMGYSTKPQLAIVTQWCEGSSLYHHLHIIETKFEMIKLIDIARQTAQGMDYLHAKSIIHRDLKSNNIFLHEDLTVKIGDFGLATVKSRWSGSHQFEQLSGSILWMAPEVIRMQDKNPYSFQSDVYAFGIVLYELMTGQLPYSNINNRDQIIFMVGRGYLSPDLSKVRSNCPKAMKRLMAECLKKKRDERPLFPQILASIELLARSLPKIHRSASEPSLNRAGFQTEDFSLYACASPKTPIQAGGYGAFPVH
Chain of protein kinases of the Z-LYTE panel (Homo sapiens, UniProt P49840) (P49840 whole entry): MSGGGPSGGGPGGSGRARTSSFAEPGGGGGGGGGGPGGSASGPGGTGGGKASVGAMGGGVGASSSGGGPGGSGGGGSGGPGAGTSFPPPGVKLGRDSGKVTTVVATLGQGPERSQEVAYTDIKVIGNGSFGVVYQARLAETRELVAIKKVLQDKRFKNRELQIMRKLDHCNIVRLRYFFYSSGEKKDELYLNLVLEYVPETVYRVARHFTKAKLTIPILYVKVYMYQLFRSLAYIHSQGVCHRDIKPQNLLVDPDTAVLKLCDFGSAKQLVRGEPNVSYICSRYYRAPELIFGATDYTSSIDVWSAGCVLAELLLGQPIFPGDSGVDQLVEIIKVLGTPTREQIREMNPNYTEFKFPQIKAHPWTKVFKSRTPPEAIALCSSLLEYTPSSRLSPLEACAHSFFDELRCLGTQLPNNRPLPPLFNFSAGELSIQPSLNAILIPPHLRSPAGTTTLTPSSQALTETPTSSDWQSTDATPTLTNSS
Chain of protein kinases of the Z-LYTE panel (Homo sapiens, UniProt P22455) (P22455 22-802): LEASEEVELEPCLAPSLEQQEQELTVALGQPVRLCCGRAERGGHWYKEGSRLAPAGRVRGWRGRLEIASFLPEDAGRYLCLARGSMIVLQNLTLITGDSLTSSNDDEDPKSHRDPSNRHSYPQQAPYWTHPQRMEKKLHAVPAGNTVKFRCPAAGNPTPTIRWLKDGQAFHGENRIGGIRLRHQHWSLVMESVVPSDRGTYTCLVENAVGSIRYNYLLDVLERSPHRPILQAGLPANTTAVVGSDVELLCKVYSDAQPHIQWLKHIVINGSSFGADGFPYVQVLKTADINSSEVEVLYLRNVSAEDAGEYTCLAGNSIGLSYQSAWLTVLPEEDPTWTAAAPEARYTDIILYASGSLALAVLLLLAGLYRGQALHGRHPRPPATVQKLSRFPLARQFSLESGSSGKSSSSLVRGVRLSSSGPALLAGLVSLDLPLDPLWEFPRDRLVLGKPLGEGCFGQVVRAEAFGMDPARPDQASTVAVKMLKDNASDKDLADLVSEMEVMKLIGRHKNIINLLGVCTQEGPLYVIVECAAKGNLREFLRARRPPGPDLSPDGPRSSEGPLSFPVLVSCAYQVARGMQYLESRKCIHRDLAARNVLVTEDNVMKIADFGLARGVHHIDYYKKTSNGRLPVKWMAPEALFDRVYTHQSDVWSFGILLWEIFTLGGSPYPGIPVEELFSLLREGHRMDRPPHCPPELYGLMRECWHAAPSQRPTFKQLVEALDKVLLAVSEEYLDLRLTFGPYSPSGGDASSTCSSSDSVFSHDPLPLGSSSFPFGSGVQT

As to `CCN1CCN(c2ccc(Nc3cc(Nc4cccc5c4N(C(C)=O)CC5)ccn3)cc2)CC1` [Compound 1938], the inhibition at 1 µM was determined as 0.632% in experiment [1] (read-out: % Inhibition Point 1); 0.0257% in experiment [1] (read-out: % Inhibition Point 2); 0.329% in experiment [1] (read-out: % Inhibition mean); 13% in experiment [2] (read-out: % Inhibition Point 1); 12% in experiment [2] (read-out: % Inhibition Point 2); 13% in experiment [2] (read-out: % Inhibition mean). For the same compound, the inhibition at 1 µM was 8.55% in experiment [3] (read-out: % Inhibition Point 1); 8% in experiment [3] (read-out: % Inhibition Point 2); 8% in experiment [3] (read-out: % Inhibition mean); 4.68% in experiment [4] (read-out: % Inhibition Point 1); -0.193% in experiment [4] (read-out: % Inhibition Point 2); 2.24% in experiment [4] (read-out: % Inhibition mean). The inhibition at 1 µM amounted to 4.46% in experiment [5] (read-out: % Inhibition Point 1), 3.55% in experiment [5] (read-out: % Inhibition Point 2) and 4% in experiment [5] (read-out: % Inhibition mean).
